The results in this text go back to patent US7160684B2, “Methods of selecting compounds for modulation of bladder function” (Wyeth, priority 2000, dated 2007).

The test system of one test is rat bladder micturition. In words: Rat bladder cystometry, hyperreflexic bladder (0.25% acetic acid infusate). It is filed as in vivo. The procedure:
Micturition frequency is enhanced by the stimulation of sensory afferents using a dilute acetic acid solution in the cystometric infusate as previously described by Birder and de Groat (Birder L A. de Groat W C. Increased c-fos expression in spinal neurons after irritation of the lower urinary tract in the rat. J Neuroscience 12: 4878–89, (1992)). Briefly, female Sprague-Dawley rats (190–210 g) are anesthetized with urethane (lg/kg/10 mL, i. p.; 1 g/kg/10 mL, s. q.). The trachea is cannulated with PE205 to ensure a patent airway. The external jugular is cannulated with PE50 tubing for administration of compound. The bladder is exposed through a midline incision, and an angiocatheter (24 g, TEFLON), is heat flared at the end and inserted into the dome of the bladder and secured with 4-0 silk. The bladder is flushed with normal saline and allowed to equilibrate for 1 hour before cystometry is performed. Using a “T” connector, the bladder catheter is connected to a Statham pressure transducer (Model P23Db) and to a Harvard infusion pump. Cystometric recordings are monitored on a GRASS polygraph while infusing the bladder with saline containing 0.25% acetic acid at a rate of 2.4 mL/hr. for one hour. Next, compound is administered intravenously and the cystometry monitored for an additional 2 hours. The following cystometric parameters are recorded: micturition interval, micturition amplitude, micturition threshold pressure, bladder capacity, bladder compliance and the number of spontaneous bladder contractions (SBC) during the filling phase. The control period is taken as the 30 minute time period of acetic acid saline perfusion before dosing.
Rat bladder micturition frequency (enhanced by infusate containing 0.25% acetic acid (Birder, L. A., & deGroat, W., C. Increased c-fos expression in spinal neurons after irritation of the lower urinary tract in the rat. J Neurosc 12: 4878–4889 (1992))) was inhibited by retigabine in a dose-dependent (0.1–10 mg/kg, i.p.) manner. At 10 mg/kg, micturition was blocked in 100% of animals dosed; the population ED50 was 1–2 mg/kg (n=5–8). Micturition block lasted for up to 90 minutes (FIG. 4a).
Rat bladder strips were isolated and prepared as previously described (Wojdan, A., Freeden, C., Woods, M., Oshiro, G., Spinelli, W. et al., J Pharmacol ExpTherap 289:1410–1418 (1999)). Preparations were contracted with either 20 or 60 mM KCl, or 200 nM carbachol. A five minute area under the contraction curve was acquired 20 minutes after addition of each concentration of retigabine using a 12 bit D/A and a 586 based personal computer running custom software. Message for KCNQ subunits was probed using quantitative rtPCR on an ABI PRISM 7700 Sequence Detection System (TAQMAN). Forward and reverse primers and TAQMAN probes were designed using published RNA sequences for human KCNQ1–5 and rat KCNQ 1–4 listed within the NCBI data base. Since no rat sequence for KCNQ5 were currently published, probes and primers were designed by BLAST analysis of rat Expressed Sequence Tags (EST) using the known mouse KNCQ5 sequence. From homologous EST sequences, a contiguous sequence of 384 base pairs was constructed. Probes and primers were designed against this sequence. BLAST analysis of our rat KCNQ5 probes and primer were selective for mouse and human KCNQ5 sequences. PCR products were confirmed by gel electrophoresis (data not shown). Cells for electrophysiology were prepared from rat bladder smooth muscle as previously described (Wojdan et al., 1999). Human bladder smooth muscle cells were obtained from Clonetics, San Diego, Calif. Cells were removed from culture with trypsin and added directly into the recording chamber. All recordings were made at 320 C and acquired on a 586 based personal computer using pCLAMP (Axon Instruments) software. Current clamp recordings were performed with nystatin access as previously described (Wojdan et al.). […]

Test [1] relates to cultured human bladder smooth muscle cells. Briefly: Voltage clamp recording of outward current, human cells. The settings on record: human bladder smooth muscle cells, FIG. 3d. It is filed as cell-based. Here is the method:
Single cell recordings are performed with a List-Medical EPC-7 patch clamp amplifier (Adams & List Assoc., Westbury, N.Y.). Pipette electrodes had tip resistances of 2–4 MΩ and are filled with the following composition (mM): KCl (126.0), MgCl2.6H2O (4.5), ATP Mg salt (4.0), GTP tris salt (0.3), creatine PO4 (14.0), D-glucose (9.0), EGTA (9.0), HEPES (9.0). The pH is adjusted to 7.4 with KOH. Signals are acquired (3 kHz high frequency cut-off, 12 bit resolution) using a 586-based personal computer.
Whole cell recordings are made using broken patch access. Currents are evoked using either voltage steps (Vh=−50; Vt=−60 to 40 mV) or voltage ramps (−60 to 40 mV at 3.3 mV/sec.). The exact voltage clamp protocols are well known in the art. After stability is achieved control currents are recorded. Next, test compound is added to the superfusate. Currents are recorded for 5 to 10 minutes or until compound effects reach steady state. This is followed either by washout or addition of antagonists (linopirdine, XE-991) to the superfusate.
Cellular electrophysiological studies were conducted using both voltage and current clamp techniques (Hammill, O., P., Marty, A., Neher, E., Sakmann, B. & Sigworth, F. J.: Improved patch-clamp techniques for high-resolution current recordings from cells and cell-free membrane patches. Pflugers Arch 391: 85–100 (1981)) from Sprague-Dawley rat (200–400 grams) bladders as previously described, (Wojdan, A., Freeden, C., Woods, M., Oshiro, G., Spinelli, W. et al., J. Pharmacol Exp Therap 289: 1410–1418 (1999)) and from a human bladder, primary cell culture (Colnetics, San Diego, Calif.). In rat cells, the average, control resting membrane potential (RMP) was −29.0±4.5 mV. […]
Rat bladder strips were isolated and prepared as previously described (Wojdan, A., Freeden, C., Woods, M., Oshiro, G., Spinelli, W. et al., J Pharmacol ExpTherap 289:1410–1418 (1999)). […] Message for KCNQ subunits was probed using quantitative rtPCR on an ABI PRISM 7700 Sequence Detection System (TAQMAN). […]

As to `CCOC(=O)Nc1ccc(NCc2ccc(F)cc2)cc1N` [retigabine, N-[2-amino-4-(4-fluorobenzylamino)-phenyl]carbamic acid ethyl ester], the “frequency of spontaneous contractions during bladder filling” value with rat bladder micturition (0.1 mg/kg, in comparison to the control) is listed as “significantly reduced”. For the same molecule, the “inhibition of spontaneous contractions” value in the test on rat bladder micturition (1 mg/kg, i.p., p<0.05) is 43.5±14.1%. For the same molecule, the “animals in which micturition was blocked” value with rat bladder micturition (10 mg/kg, i.p.) amounted to 100%. Besides, the micturition entry in the test with rat bladder micturition (10 mg/kg, i.p., within minutes of dosing, four rats) is reported as “completely blocked”. The median effective dose (ED50) in the test on rat bladder micturition (Rattus norvegicus, ip, n=5–8, read-out: population ED50 for micturition block) was in the range of 1 to 2 mg/kg. Besides, the micturition frequency entry in the test with rat bladder micturition (dose-dependent, 0.1–10 mg/kg, i.p.) was “inhibited”. Besides, the “duration of micturition block” value in the test with rat bladder micturition (i.p., FIG. 4a) is “up to 90 minutes”. Besides, the “effect on outward current” value in test [1] is given as “increased outward currents”; in test [1] (listed as Retigabine) it was “increased an outward current”.
